One block for each compound: values may come before it. Calls of active or inactive are those of the source.
Columns and labels:
[1] = biological target: T1, Alkaline phosphatase, tissue-nonspecific isozyme (Homo sapiens, UniProt P05186)
T1 sequence (P05186 whole entry): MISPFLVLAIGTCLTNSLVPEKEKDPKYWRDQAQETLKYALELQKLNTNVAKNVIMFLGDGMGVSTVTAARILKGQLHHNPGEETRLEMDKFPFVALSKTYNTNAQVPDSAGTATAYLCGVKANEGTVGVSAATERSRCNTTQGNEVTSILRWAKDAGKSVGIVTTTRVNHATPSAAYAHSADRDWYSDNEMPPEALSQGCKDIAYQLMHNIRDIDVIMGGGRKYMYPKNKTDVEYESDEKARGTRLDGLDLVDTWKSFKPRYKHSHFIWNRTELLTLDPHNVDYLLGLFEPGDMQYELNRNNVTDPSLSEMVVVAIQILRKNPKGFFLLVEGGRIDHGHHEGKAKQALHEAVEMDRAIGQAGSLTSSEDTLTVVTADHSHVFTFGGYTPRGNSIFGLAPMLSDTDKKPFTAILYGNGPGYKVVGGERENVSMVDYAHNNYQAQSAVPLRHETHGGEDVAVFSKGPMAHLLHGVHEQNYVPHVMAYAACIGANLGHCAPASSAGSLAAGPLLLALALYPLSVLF

[2] = biological target: Intestinal-type alkaline phosphatase (Mus musculus, UniProt P24822); assay: PubChem AID 488874; format: functional
[3] = biological target: T2, Intestinal-type alkaline phosphatase (Homo sapiens, UniProt P09923); assay: human intestinal alkaline phosphatase activators, dose response, biochemical, luminescence, uHTS hits (AID 463120); format: functional
[4] = biological target: T2, Intestinal-type alkaline phosphatase; assay: human IAP activators, dose response, biochemical, luminescent, uHTS hits, set 2 (AID 488817); format: functional;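 also: potency of activators that raise enzyme activity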
[5] = biological target: T1, Alkaline phosphatase, tissue-nonspecific isozyme; assay: TNAP enzyme activators, dose response, selectivity assay for human IAP activator project, biochemical, TNAP isozyme, human IAP uHTS hits (AID 488886); format: functional;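 also: potency of compounds raising TNAP activity as a selectivity check on IAP activators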
Coagulation factor XII = biological target: T3, Coagulation factor XII (Homo sapiens, UniProt P00748); assay: FXIIa inhibitor potency, concentration-response, biochemical (AID 716); format: functional
T3 sequence (P00748 whole entry): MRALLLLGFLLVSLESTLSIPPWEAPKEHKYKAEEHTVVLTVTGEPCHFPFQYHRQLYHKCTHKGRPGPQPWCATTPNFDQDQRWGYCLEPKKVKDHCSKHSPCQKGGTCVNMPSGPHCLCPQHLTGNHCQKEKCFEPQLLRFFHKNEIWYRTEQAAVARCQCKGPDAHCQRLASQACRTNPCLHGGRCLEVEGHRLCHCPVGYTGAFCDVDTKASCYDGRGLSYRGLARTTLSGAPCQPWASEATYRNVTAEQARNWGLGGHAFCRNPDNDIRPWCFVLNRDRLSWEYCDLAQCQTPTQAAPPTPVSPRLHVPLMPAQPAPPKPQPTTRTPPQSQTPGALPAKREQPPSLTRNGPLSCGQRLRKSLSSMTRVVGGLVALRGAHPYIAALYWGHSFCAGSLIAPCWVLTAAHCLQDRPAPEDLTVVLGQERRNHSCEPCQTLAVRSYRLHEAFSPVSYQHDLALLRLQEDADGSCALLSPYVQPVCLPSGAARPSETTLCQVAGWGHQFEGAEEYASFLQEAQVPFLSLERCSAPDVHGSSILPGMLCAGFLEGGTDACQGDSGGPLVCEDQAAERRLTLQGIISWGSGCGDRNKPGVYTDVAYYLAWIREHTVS

[6] = biological target: T4, Neuropeptides B/W receptor type 1 (Homo sapiens, UniProt P48145); assay: Fluorescence-based dose response cell-based high throughput screening assay to identify antagonists of the G-protein coupled receptor 7 (GPR7). [Related pubchem assays: 1952 (Screening assay (GPR7 antagonists).), 1880 (Summary AID.)]; format: functional
T4 sequence (P48145 whole entry): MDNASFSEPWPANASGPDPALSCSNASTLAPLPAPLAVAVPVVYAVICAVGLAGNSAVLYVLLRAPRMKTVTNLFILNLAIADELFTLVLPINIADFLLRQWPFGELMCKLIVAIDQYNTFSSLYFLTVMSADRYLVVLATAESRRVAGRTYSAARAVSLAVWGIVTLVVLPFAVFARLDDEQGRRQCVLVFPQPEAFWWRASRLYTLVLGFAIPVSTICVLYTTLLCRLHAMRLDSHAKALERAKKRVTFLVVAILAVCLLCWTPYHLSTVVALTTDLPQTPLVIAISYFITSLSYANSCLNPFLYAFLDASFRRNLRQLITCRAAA

[7] = biological target: T5, Melanin-concentrating hormone receptor 1 (Homo sapiens, UniProt Q99705); assay: Fluorescence-based counterscreen for antagonists of the G-protein coupled receptor 7 (GPR7): cell-based high throughput dose response assay to identify antagonists of the melanin-concentrating hormone receptor 1 (MCHR1).; format: functional
[8] = biological target: T5, Melanin-concentrating hormone receptor 1; assay: Late-stage fluorescence-based counterscreen for antagonists of the G-protein coupled receptor 7 (GPR7): cell-based dose response assay to identify antagonists of the melanin-concentrating hormone receptor 1 (MCHR1). [Related pubchem assays (depositor defined):AID1861, AID1880, AID1952, AID2148, AID2251, AID2257, AID485339]; format: functional
[9] = biological target: T4, Neuropeptides B/W receptor type 1; assay: GPR7 antagonist potency, late-stage follow-up, cell-based, fluorescence, dose response (AID 463251); format: functional
[10] = A549 cell cytotoxicity, dose response, cytotoxicity control, plate reader, cherry-pick, antagonist series (AID 743412); format: functional, cell-based
[11] = HepG2 cell cytotoxicity, dose response, cytotoxicity control, plate reader, cherry-pick, antagonist series (AID 743416); format: functional, cell-based
[12] = HEK293 cell cytotoxicity, dose response, cytotoxicity control, plate reader, cherry-picked samples (AID 743446); format: functional, cell-based
Saccharomyces cerevisiae = assay: NALP1 inhibitor project selectivity study, Caspase-1/ASC signal blockade IC50 in S. cerevisiae (AID 488863); format: functional, organism-based
[13] = biological target: NACHT, LRR and PYD domains-containing protein 1 (Homo sapiens, UniProt Q9C000); assay: NALP1 inhibitors in yeast, dose response, luminescent (AID 488860); format: functional
[14] = biological target: T6, Corticotropin-releasing factor receptor 2/Corticotropin-releasing factor-binding protein (Homo sapiens, UniProt P24387+Q13324); assay: activators of CRF receptor 2 with binding protein – uHTS hits, confirmation (AID 602473); format: functional; conditions: read-out: EC50_Mean
T6 sequence (Q13324 whole entry): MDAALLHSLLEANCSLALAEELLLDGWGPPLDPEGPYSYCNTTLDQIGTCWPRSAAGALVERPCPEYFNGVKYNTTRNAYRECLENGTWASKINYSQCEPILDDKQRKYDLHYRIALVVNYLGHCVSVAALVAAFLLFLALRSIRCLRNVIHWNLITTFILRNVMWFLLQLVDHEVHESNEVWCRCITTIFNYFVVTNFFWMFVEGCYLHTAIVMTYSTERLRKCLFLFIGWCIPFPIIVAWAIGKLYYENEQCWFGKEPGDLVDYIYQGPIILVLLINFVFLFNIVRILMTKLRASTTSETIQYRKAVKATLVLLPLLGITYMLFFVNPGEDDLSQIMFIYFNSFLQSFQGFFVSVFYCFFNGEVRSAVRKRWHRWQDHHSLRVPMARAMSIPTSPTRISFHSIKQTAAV
T6 sequence (P24387 whole entry): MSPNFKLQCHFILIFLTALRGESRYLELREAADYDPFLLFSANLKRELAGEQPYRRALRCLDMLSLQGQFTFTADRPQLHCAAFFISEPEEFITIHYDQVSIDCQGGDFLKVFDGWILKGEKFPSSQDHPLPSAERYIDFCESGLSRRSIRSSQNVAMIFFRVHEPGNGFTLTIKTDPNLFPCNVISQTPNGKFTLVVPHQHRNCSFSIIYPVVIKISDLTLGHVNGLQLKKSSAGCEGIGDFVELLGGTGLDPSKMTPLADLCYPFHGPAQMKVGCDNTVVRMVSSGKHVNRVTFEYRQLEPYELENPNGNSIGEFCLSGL

T2 sequence (P09923 whole entry): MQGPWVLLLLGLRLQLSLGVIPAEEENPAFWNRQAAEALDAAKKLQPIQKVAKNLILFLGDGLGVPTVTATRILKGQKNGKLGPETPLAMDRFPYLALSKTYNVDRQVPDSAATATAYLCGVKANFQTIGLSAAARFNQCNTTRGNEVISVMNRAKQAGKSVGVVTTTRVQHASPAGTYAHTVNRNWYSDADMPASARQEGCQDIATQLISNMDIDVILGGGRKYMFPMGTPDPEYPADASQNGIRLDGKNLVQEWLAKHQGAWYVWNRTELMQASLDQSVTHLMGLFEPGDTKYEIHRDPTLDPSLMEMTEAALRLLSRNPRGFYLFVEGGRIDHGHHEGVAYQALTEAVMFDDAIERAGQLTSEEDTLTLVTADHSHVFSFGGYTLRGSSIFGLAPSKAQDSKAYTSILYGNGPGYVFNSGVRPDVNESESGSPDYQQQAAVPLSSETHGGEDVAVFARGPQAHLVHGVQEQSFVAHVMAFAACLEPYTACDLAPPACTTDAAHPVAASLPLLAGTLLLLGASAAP
T5 sequence (Q99705 whole entry): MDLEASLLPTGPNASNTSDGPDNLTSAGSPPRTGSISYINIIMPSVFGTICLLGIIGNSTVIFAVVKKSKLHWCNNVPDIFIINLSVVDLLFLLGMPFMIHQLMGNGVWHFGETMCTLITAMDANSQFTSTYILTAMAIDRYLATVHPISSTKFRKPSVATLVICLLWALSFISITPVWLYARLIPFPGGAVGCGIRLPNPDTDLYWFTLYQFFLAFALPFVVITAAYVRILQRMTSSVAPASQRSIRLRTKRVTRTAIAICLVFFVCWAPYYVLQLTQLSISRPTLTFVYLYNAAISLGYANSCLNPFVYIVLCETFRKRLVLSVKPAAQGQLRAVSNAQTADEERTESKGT
NACHT, LRR and PYD domains-containing protein 1, sequence (Q9C000 1-1212 limits assumed): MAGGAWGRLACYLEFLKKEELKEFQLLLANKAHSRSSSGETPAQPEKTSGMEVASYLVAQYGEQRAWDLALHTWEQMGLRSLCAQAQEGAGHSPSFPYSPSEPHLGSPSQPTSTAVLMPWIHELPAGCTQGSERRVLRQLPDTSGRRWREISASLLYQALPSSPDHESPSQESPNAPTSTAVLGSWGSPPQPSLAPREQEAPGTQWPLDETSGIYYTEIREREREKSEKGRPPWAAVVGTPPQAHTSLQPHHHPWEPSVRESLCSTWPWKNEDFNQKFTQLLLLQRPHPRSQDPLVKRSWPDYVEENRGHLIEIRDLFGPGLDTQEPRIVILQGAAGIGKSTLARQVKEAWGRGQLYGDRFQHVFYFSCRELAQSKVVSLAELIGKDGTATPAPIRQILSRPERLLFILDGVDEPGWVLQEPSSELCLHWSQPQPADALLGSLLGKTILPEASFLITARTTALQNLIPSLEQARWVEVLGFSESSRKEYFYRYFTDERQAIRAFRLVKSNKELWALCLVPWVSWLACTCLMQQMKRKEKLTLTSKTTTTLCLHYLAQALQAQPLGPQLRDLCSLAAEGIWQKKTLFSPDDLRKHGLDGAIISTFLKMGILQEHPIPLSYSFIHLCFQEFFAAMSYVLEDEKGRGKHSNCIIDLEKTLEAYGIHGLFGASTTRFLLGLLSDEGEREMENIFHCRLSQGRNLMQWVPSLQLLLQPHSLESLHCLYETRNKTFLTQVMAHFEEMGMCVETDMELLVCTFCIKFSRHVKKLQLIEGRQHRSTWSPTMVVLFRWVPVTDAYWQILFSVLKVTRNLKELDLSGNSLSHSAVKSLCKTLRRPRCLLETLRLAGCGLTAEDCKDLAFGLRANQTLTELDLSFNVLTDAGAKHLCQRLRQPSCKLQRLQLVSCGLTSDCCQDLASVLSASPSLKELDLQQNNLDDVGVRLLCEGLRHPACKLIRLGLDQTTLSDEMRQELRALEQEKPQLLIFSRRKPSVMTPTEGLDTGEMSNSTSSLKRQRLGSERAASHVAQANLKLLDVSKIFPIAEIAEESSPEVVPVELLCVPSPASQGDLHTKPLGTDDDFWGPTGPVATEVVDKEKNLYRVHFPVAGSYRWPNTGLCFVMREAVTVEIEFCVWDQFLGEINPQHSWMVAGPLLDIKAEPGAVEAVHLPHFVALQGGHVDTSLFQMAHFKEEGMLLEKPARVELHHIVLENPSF
NACHT, LRR and PYD domains-containing protein 1, sequence (Q9C000 1213-1473 limits assumed): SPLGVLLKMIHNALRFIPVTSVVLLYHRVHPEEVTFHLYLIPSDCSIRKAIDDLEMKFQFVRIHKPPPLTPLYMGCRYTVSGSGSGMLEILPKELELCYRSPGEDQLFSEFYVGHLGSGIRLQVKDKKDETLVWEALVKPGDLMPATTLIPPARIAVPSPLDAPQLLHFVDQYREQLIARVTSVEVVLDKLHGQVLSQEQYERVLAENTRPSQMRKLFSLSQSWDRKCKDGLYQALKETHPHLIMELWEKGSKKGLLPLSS
Intestinal-type alkaline phosphatase (Mus musculus, UniProt P24822), sequence (P24822 whole entry): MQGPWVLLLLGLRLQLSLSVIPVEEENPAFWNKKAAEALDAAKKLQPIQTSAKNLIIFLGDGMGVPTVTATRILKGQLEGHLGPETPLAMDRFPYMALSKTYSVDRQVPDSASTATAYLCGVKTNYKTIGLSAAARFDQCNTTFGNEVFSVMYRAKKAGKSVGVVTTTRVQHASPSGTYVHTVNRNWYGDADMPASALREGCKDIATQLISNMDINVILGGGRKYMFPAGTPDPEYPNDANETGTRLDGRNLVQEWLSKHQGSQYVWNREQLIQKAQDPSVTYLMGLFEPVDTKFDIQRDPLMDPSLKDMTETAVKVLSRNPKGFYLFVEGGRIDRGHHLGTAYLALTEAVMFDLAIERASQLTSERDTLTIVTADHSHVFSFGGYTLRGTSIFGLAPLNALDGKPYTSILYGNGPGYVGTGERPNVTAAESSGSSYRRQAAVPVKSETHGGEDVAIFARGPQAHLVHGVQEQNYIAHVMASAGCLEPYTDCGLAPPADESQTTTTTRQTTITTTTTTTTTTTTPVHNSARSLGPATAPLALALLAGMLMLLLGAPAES

EC50 [1]: > 100 µM (not active)
IC50 [2]: 50 µM (active)
EC50 [3]: 6.41 µM (active)
EC50 [4]: 7.62 µM (active)
EC50 [5]: 10.2 µM (active)
Compound: CC(C)C(=O)NC(=S)Nc1ccccc1C(=O)Nc1ccccc1

IC50 (Coagulation factor XII): > 50 µM (inactive)
Compound: COCCn1nnnc1C(c1cc2ccc(C)cc2[nH]c1=O)N(Cc1ccco1)Cc1cccs1 (stereo unspecified)

Compound: O=[N+]([O-])c1cc(S(=O)(=O)N2CCCCCC2)ccc1Cl
IC50 [6]: 2.88 µM (active)
IC50 [7]: 8.01 µM (active)
IC50 [8]: 10.1 µM (inactive)
IC50 [9]: 5.8 µM (active)
AC50 [10]: > 52 µM (inactive)
AC50 [11]: > 52 µM (inactive)
AC50 [12]: > 52 µM (inactive)

Compound: COc1ccc(C2=C/C(=C/c3cccnc3)C(=O)O2)cc1OC
IC50 (Saccharomyces cerevisiae): > 100 µM (inactive)
IC50 [13]: > 100 µM (inactive)
EC50 [14]: 3.91 µM (active)
